Biological target: T1, Isoform 2 of Nuclear receptor ROR-alpha (Alpha-2) (Homo sapiens, UniProt P35398)
T1 sequence (P35398 whole entry): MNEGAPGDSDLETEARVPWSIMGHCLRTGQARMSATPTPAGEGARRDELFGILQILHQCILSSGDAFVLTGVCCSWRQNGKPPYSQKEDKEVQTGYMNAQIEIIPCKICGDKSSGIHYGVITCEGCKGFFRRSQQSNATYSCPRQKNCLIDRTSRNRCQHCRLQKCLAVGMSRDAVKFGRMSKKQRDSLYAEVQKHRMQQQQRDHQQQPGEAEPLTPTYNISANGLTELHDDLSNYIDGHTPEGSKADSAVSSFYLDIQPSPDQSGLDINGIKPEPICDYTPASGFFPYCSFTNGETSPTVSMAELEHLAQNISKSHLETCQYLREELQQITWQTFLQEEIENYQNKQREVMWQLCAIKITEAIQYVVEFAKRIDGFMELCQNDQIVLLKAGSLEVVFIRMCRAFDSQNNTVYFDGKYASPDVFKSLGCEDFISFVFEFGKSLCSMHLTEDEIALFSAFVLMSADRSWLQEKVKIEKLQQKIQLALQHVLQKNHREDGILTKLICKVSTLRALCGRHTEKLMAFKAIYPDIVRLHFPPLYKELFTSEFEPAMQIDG
Assay: RORA ligand-binding domain transactivation agonists – cell-based, CHO-K1, Gal4-RORA LBD, luciferase luminescence, dose response (AID 681)

| EC50 [nM] | SMILES |
| --- | --- |
| > 1100 | Nc1c(C(=O)NCCN2CCOCC2)c2nc3ccccc3nc2n1-c1ccc2c(c1)OCO2 [2-amino-1-(1,3-benzodioxol-5-yl)-N-(2-morpholin-4-ylethyl)pyrrolo[3,2-b]quinoxaline-3-carboxamide] |
| > 99000 | Cc1ccc2c(c1)c1c3n2CCCNC3CCC1 (stereo not given) [MLS000105423] |
| 1050 | COc1ccc(C(=O)Nc2cc(C)on2)cc1 [4-methoxy-N-(5-methyl-1,2-oxazol-3-yl)benzamide] |
| 1920 | COc1ccc(Nc2oc(-c3ccccc3Cl)nc2C#N)cc1 [2-(2-chlorophenyl)-5-(4-methoxyanilino)-1,3-oxazole-4-carbonitrile] |
| > 136 | CCOc1ccc2nc(NC(=O)c3cnccn3)sc2c1 [MLS000070707] |

— BindingDB's records for doi:10.7270/Q2RJ4GVG (The Scripps Research Institute Molecular Screening Center, 2007)
